Experimental data taken from patent EP0738513A1, “Method for using ergoline compounds to effect physiological and pathological functions at the 5-HT7 receptor” (ELI LILLY AND COMPANY, priority 1995, dated 1996).
Read-outs that look alike come from different tables or passages of the source.

How the values were obtained:
5-HT7 receptor = 5-HT7 receptor (Rattus norvegicus, UniProt P32305); conditions: receptor expressed in mammalian cells; Shen at 18200; cited from earlier work
[1] = system: 5-HT7 receptor in the dog coronary artery; test: antagonism of 5-HT-induced relaxation in endothelium-denuded canine coronary artery rings precontracted with PGF2α; assay type: cell-based, mongrel dogs; conditions: for pA2 (-log KB): antagonist dissociation constant against 5-HT-induced relaxation, Schild analysis for compounds II and IV; for relaxant activity as agonist in canine coronary artery: agonist alone
Experimental: (§1) Hearts were obtained from mongrel dogs anesthetized with sodium pentobarbital (30mg/kg, i.v.) and placed in oxygenated modified Krebs' solution of the following composition (millimolar): NaCl, 118; KCl, 4.6; CaCl2, 1.6; KH2PO4, 1.2; MgSO4 1.2, glucose, 10; NaHCO3 24.8 (pH 7.4). The left anterior descending and circumflex coronary arteries were dissected from the hearts, cleaned of fat and adhering tissue and cut into rings (approximately 2-3mm outer diameter and 4-5mm in length). The intimal surface of the rings was gently rubbed with a pair of forceps to remove the endothelium. Tissues were then mounted between two stainless steel hooks and placed in 10ml organ chambers constantly exposed to oxygenated modified Krebs' solution (95% O2/5% CO2; pH 7.4; 37°C). Tissues were equilibrated for 1 hour under an initial optimal passive force of 4g determined previously from length-tension experiments. The buffer was replaced every 15 minutes during equilibration. Isometric force was measured with Statham UC3 force transducers connected to a Beckman dynograph (R611). After lhr equilibration, tissues were depolarized twice with 50mM KCl for 30min with a 20min washing period between. The integrity of the endothelium was examined with acetylcholine (1µM), bradykinin (100nM), or the ionophore A23187 (1µM). Rings that relaxed to these agents were not used in this study.
(§2) Tissues prepared as described in Example 1 were precontracted with PGF2α (10µM) which produced a tonic contraction that remained at or above 92.8±2.1% (n=14) of the original maximum force throughout the experiment. Cumulative concentration-response curves to 5-HT were generated in tissues incubated with either vehicle or antagonist for 1hr. In some experiments contraction was measured in tissues under basal tone upcn the cumulative addition of 5-HT. These tissues were treated with prazosin (1µM) to block any potential α adrenoceptor activation and in the absence or presence of antagonist.
(§3) All results are expressed as mean ± S.E. where "n" represents the number of rings examined. No more than two rings were used from each animal for each compound studied. The relaxation data is expressed as percent relaxation of the contraction produced by PGF2α . The contraction data is expressed as percent of a maximal KCl (50mM) contraction. The EC50 was the concentration of the agonist producing half-maximal response and was determined by least squares linear regression analysis of the linear portion of the agonist concentration-response curve and expressed as -log EC50 (pEC50).
Apparent antagonist dissociation constants (KB) were determined for each antagonist according to the following equation: KB =((B))/((dose ratio -1)) [formula] where (B) is the concentration of the antagonist and dose ratio is the EC50 of the agonist in the presence of the antagonist divided by the EC50 of the agonist in vehicle treated tissues. […] Significant differences between vehicle and antagonist treated tissues were determined with Student's t-test. The alpha value was set a priori at 0.05.
The data was also analyzed in accord with the procedure of Arunlakshana and Schild (1959). The dose ratio was determined at various concentrations of antagonist compound II or compound IV. If blockade is competitive under equilibrium conditions a plot of the logarithm (dose ratio - 1) against the negative logarithm of the molar concentration of antagonist should yield a straight line whose slope is not different from unity and whose intercept on the abscissa is the pA2, which is generally considered to be equivalent to -log KB.

human 5-HT7 receptor = human 5-HT7 receptor (Homo sapiens, UniProt P34969); test: receptor binding studies at the human 5-HT7 receptor
human 5-HT7 receptor, sequence (P34969 whole entry): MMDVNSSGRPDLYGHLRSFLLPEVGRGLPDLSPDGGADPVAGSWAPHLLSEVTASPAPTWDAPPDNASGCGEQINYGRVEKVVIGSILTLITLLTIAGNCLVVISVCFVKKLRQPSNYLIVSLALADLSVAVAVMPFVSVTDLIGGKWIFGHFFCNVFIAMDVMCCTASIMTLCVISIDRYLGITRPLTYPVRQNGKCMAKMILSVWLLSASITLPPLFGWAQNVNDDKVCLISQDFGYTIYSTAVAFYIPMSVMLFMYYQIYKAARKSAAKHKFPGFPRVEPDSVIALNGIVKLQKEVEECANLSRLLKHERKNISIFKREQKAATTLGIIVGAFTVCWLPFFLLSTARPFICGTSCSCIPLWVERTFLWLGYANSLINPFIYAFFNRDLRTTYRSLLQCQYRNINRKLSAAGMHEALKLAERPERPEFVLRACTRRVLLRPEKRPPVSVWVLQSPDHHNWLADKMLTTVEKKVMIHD
Source text: The general chemical structure for three particularly useful compounds of the invention (compounds III - V) are shown below: [drawing 3]

[2] = bioavailability after oral administration in rats; assay type: in vivo; conditions: comparative statement
[3] = system: endothelium denuded canine coronary artery; test: agonist-induced contraction in endothelium-denuded canine coronary artery under basal tone; assay type: cell-based, mongrel dogs; conditions: for contractile response as agonist: no antagonist
Experimental: as §1, §2, §3

[4] = rings precontracted with PGF2α (10µM)
[5] = antagonist 1µM, vessels under basal tone
[6] = antagonist 0.3-10µM, rings precontracted with PGF2α (10µM)

5-HT7 receptor, sequence (P32305 whole entry): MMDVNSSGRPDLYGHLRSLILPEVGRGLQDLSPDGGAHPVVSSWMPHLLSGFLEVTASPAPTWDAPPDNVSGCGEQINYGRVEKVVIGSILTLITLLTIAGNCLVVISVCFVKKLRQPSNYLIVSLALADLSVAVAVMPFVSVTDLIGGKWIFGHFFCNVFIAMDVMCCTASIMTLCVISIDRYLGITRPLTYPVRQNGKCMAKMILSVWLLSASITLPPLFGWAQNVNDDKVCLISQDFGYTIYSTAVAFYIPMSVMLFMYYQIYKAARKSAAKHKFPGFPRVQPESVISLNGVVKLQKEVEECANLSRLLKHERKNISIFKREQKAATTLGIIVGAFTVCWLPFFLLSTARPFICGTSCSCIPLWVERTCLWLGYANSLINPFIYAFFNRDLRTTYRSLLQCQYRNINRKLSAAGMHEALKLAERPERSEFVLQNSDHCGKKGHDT

SMILES: CN(C)CCC=C1c2ccccc2CCc2ccccc21 [amitriptyline]
- affinity of the 5-HT7 receptor to the drug (5-HT7 receptor): high affinity

SMILES: CC(C)n1cc2c3c(cccc31)C1CC(C(=O)NC3CCCCC3)CN(C)C1C2 (stereo not shown) [COMPOUND III]
- effect on 5-HT-induced relaxation ([1]; antagonist 1µM): blocked 5-HT-induced relaxation
- pA2 (-log KB) [1, 4]: 6.7
- Kd (human 5-HT7 receptor; read-out: -log KD (converted)): 25.1 nM
- Kd (human 5-HT7 receptor; read-out: KD): 27.1 ± 1.5 nM
- bioavailability [2]: greater bioavailability than the ester compounds II and V

SMILES: CNS(=O)(=O)Cc1ccc2[nH]cc(CCN(C)C)c2c1 [sumatriptan]
- relaxant activity as agonist in canine coronary artery [1]: lacking relaxant activity

SMILES: NCCc1c[nH]c2ccc(C(N)=O)cc12 [5-CT, 5-carboxamidotryptamine]
- relaxant activity as agonist in canine coronary artery [1]: potent relaxant agonist
- contractile response as agonist in the presence of compound IV ([3]; basal tone, compound IV (1µm) present to block relaxation): concentration-dependently contracted
- contractile response as agonist ([3]; vessels under basal tone): did not significantly contract

SMILES: CC(C)n1cc2c3c(cccc31)C1CC(C(=O)NC3CCCC3O)CN(C)C1C2 (stereo not shown) [COMPOUND IV]
- effect on 5-HT-induced relaxation ([1]; antagonist 10-100nM): blocked 5-HT-induced relaxation
- pA2 (-log KB) [1, 4]: 8.3
- Kd (human 5-HT7 receptor; read-out: -log KD (converted)): 12.6 nM
- Kd (human 5-HT7 receptor; read-out: KD): 13.3 ± 1.2 nM
- effect on sumatriptan-induced contraction ([3]; antagonist 1µM, basal tone): did not significantly affect
- effect on contractile response produced by 5-HT and 5-MeOT [3, 5]: not affecting
- effect on relaxant phase of the biphasic response to 5-HT and 5-MeOT [3, 5]: significantly attenuated
- bioavailability [2]: greater bioavailability than the ester compounds II and V

SMILES: NCCc1c[nH]c2ccc(O)cc12 [5-HT, 5-hydroxytryptamine]
- contractile response as agonist ([3]; vessels under basal tone): biphasic contractile response

SMILES: COc1ccc2[nH]cc(CCN)c2c1 [5-MeOT, 5-methoxytryptamine]
- contractile response as agonist ([3]; vessels under basal tone): biphasic contractile response

SMILES: CC(O)C(C)OC(=O)C1CC2c3cccc4c3c(cn4C(C)C)CC2N(C)C1 (stereo not shown) [COMPOUND II]
- effect on concentration-response curve to 5-HT (relaxation) [1, 6]: shifted the concentration-response curve to 5-HT significantly to the right
- effect on maximum relaxant response to 5-HT [1, 6]: did not alter
- pA2 (-log KB) [1, 4]: 6.5
- Kd (human 5-HT7 receptor; read-out: -log KD (converted)): 631 nM
- Kd (human 5-HT7 receptor; read-out: KD): 609 nM
